Reference: patent publication US11407736B2 (priority 2019, dated 2022)
Like-named read-outs stand apart in the source and are kept apart here.

How the values were obtained:
U937 cells = experiment: U937 cell necroptosis assay (TNFa + zVAD, CellTiter-Glo); type: cell-based, human; settings: TNFa + zVAD, read-out: U937 Zvad TNF CTG Recovery, U937, TNFa + zVAD (IC50)
How it was run: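 Human U937 and murine L929 cells in RPMI 1640/10% FBS were pre-incubated 1 h at 37 °C with serially diluted compound plus zVAD-fmk (U937 plated with 60 uM, L929 medium with 40 uM), then stimulated with 2 ng/mL TNFa (final). Viability read by CellTiter-Glo luminescence after 18 h.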

RIPK1 = RIPK1 (Homo sapiens (Human), UniProt Q13546); experiment: RIPK1 ADP-Glo biochemical kinase assay
Description: The final reaction volume was 5.0ul.
Adding 5 μl of ADP-Glo™ terminated the reaction.

L929 cells = experiment: L929 cell necroptosis assay (TNFa + zVAD, CellTiter-Glo); type: cell-based, murine; settings: TNFa + zVAD, read-out: L929-CTG-recovery, L929, TNFa + zVAD (IC50)
How it was run: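 Murine L929 cells, plated 18 h beforehand at 10K cells/well in RPMI 1640 with 10% FBS, were switched to medium containing 40 uM zVAD-fmk and given compound from 4-fold serial dilutions. Viability after 18 h of TNFa stimulation at 37° C was read by CellTiter-Glo luminescence.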

[1] = Homo sapiens, U-937, U937 cells
[2] = read-out: RIPK1 ADP-Glo Kinase (IC50)

Chain of RIPK1 (Q13546 whole entry, species assumed): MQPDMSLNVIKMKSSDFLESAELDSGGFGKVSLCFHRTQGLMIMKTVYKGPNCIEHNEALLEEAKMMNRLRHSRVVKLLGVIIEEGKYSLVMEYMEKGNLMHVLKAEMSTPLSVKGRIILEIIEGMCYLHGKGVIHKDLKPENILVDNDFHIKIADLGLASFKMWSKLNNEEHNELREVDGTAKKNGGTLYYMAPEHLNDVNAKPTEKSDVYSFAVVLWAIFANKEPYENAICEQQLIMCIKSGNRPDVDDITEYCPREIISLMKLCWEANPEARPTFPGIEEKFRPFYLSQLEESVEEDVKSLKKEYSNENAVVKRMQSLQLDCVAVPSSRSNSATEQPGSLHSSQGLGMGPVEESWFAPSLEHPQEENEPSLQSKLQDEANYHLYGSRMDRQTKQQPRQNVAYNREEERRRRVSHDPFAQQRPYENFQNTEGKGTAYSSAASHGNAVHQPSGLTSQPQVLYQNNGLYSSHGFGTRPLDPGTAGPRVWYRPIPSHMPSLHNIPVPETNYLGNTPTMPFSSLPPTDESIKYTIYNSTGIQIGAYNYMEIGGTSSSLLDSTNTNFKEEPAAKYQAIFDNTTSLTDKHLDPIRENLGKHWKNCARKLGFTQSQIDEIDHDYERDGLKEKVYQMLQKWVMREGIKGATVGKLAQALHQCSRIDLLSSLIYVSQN

| SMILES | IC50 (RIPK1; [2]) [nM] | IC50 (U937 cells; [1]) [nM] | IC50 (L929 cells; Mus musculus, L929, L929 cells) [nM] | IC50 (U937 cells; U937 cells) [nM] | IC50 (L929 cells; L929 cells) [nM] | IC50 (RIPK1) [nM] |
| --- | --- | --- | --- | --- | --- | --- |
| CCN(C(=O)c1n[nH]c(Cc2ccccc2)n1)[C@H]1COc2ccc(C#CC(C)(C)O)cc2N(C)C1=O [Compound I-86, (S)-5-benzyl-N-ethyl-N-(7-(3-hydroxy-3-methylbut-1-yn-1-yl)-5-methyl-4-oxo-2,3,4,5-tetrahydrobenzo[b][1,4]oxazepin-3-yl)-1H-1,2,4-triazole-3-carboxamide] | 616 | 4.1 | 0.6 |  |  |  |
| Cc1cccc(C)c1Cn1cnc(C(=O)N[C@H]2COc3ccc(C#CC(C)(C)C)cc3N(C)C2=O)n1 [Compound I-90, (S)-1-(2,6-dimethylbenzyl)-N-(7-(3,3-dimethylbut-1-yn-1-yl)-5-methyl-4-oxo-2,3,4,5-tetrahydrobenzo[b][1,4]oxazepin-3-yl)-1H-1,2,4-triazole-3-carboxamide] | 365 | 9.1 | 4.6 |  |  |  |
| CCN1C(=O)[C@@H](NC(=O)c2n[nH]c(Cc3ccccc3)n2)COc2ccc(C#CC(C)(C)O)cc21 [Compound I-91, (S)-5-benzyl-N-(5-ethyl-7-(3-hydroxy-3-methylbut-1-yn-1-yl)-4-oxo-2,3,4,5-tetrahydrobenzo[b][1,4]oxazepin-3-yl)-1H-1,2,4-triazole-3-carboxamide] | 388 | 19.8 | 3.7 |  |  |  |
| CCN1C(=O)[C@@H](NC(=O)c2n[nH]c(Cc3cccc(F)c3)n2)COc2ccc(C#CC(C)(C)O)cc21 [Compound I-92, (S)—N-(5-ethyl-7-(3-hydroxy-3-methylbut-1-yn-1-yl)-4-oxo-2,3,4,5-tetrahydrobenzo[b][1,4]oxazepin-3-yl)-5-(3-fluorobenzyl)-1H-1,2,4-triazole-3-carboxamide] | 932 | 4840 | 430 |  |  |  |
| CN1C(=O)[C@@H](NC(=O)c2n[nH]c(Cc3ccccc3)n2)COc2ccc(C#C[Si](C)(C)C)cc21 [Compound I-97, (S)-5-benzyl-N-(5-methyl-4-oxo-7-((trimethylsilyl)ethynyl)-2,3,4,5-drobenzo[b][1,4]oxazepin-3-yl)-1H-1,2,4-triazole-3-carboxamide] | 85.8 |  |  | 1.7 | 0.9 |  |
| CN1C(=O)[C@@H](NC(=O)c2cc(Oc3ccccc3)ccn2)COc2ccc(C#CC3(O)CCCC3)cc21 [Compound I-98, (S)—N-(7-((1-hydroxycyclopentyl)ethynyl)-5-methyl-4-oxo-2,3,4,5-tetrahydrobenzo[b][1,4]oxazepin-3-yl)-4-phenoxypicolinamide] |  | 1.6 | 36.8 |  |  | 29.6 |
| C=C(C)C#Cc1ccc2c(c1)N(C)C(=O)[C@@H](NC(=O)c1cc(Oc3ccccc3)ccn1)CO2 [Compound I-99, (S)—N-(5-methyl-7-(3-methylbut-3-en-1-yn-1-yl)-4-oxo-2,3,4,5-tetrahydrobenzo[b][1,4]oxazepin-3-yl)-4-phenoxypicolinamide] |  | 1.3 | 116 |  |  | 126 |
| CN1C(=O)[C@@H](NC(=O)c2cc(Oc3ccc(F)cc3)ccn2)COc2ccc(C#CC(C)(C)C)cc21 [Compound I-101, (S)—N-(7-(3,3-dimethylbut-1-yn-1-yl)-5-methyl-4-oxo-2,3,4,5-tetrahydrobenzo[b][1,4]oxazepin-3-yl)-4-(4-fluorophenoxy)picolinamide] | 133 | 36.3 | 668 |  |  |  |
| CN1C(=O)[C@@H](NC(=O)c2cc(Oc3ccccc3F)ccn2)COc2ccc(C#CC(C)(C)C)cc21 [Compound I-102, (S)—N-(7-(3,3-dimethylbut-1-yn-1-yl)-5-methyl-4-oxo-2,3,4,5-tetrahydrobenzo[b][1,4]oxazepin-3-yl)-4-(2-fluorophenoxy)picolinamide] | 383 | 27.3 | 397 |  |  |  |
| CN1C(=O)[C@@H](NC(=O)c2cc(Oc3ccc(F)cc3F)ccn2)COc2ccc(C#CC(C)(C)C)cc21 [Compound I-104, (S)-4-(2,4-difluorophenoxy)-N-(7-(3,3-dimethylbut-1-yn-1-yl)-5-methyl-4-oxo-2,3,4,5-tetrahydrobenzo[b][1,4]oxazepin-3-yl)picolinamide] | 581 | 224 | 1820 |  |  |  |

More lines, main results first:

| IC50 (RIPK1; [2]) [nM] | SMILES | IC50 (U937 cells; [1]) [nM] | IC50 (L929 cells; Mus musculus, L929, L929 cells) [nM] | IC50 (U937 cells; U937 cells) [nM] | IC50 (L929 cells; L929 cells) [nM] | IC50 (RIPK1) [nM] |
| --- | --- | --- | --- | --- | --- | --- |
| 66.4 | CN1C(=O)[C@@H](NC(=O)c2ncn(Cc3ccc(-c4ccccc4)cc3)n2)COc2ccc(C#CC(C)(C)O)cc21 [Compound I-83, (S)-1-([1,1′-biphenyl]-4-ylmethyl)-N-(7-(3-hydroxy-3-methylbut-1-yn-1-yl)-5-methyl-4-oxo-2,3,4,5-tetrahydrobenzo[b][1,4]oxazepin-3-yl)-1H-1,2,4-triazole-3-carboxamide] | 1 | 0.1 |  |  |  |
| 44.1 | Cc1cccc(C)c1Cn1cnc(C(=O)N[C@H]2COc3ccc(C#CC(C)(C)O)cc3N(C)C2=O)n1 [Compound I-84, (S)-1-(2,6-dimethylbenzyl)-N-(7-(3-hydroxy-3-methylbut-1-yn-1-yl)-5-methyl-4-oxo-2,3,4,5-tetrahydrobenzo[b][1,4]oxazepin-3-yl)-1H-1,2,4-triazole-3-carboxamide] | 56.3 | 12.2 |  |  |  |
| 42.3 | CC(C)Cn1cnc(C(=O)N[C@H]2COc3ccc(C#CC(C)(C)O)cc3N(C)C2=O)n1 [Compound I-85, (S)—N-(7-(3-hydroxy-3-methylbut-1-yn-1-yl)-5-methyl-4-oxo-2,3,4,5-tetrahydrobenzo[b][1,4]oxazepin-3-yl)-1-isobutyl-1H-1,2,4-triazole-3-carboxamide] | 3.3 | 0.6 |  |  |  |
| 18.7 | CN1C(=O)[C@@H](NC(=O)c2cc(Cc3ccccc3)on2)COc2ccc(C#CC(C)(C)O)cc21 [Compound I-87, (S)-5-benzyl-N-(7-(3-hydroxy-3-methylbut-1-yn-1-yl)-5-methyl-4-oxo-2,3,4,5-tetrahydrobenzo[b][1,4]oxazepin-3-yl)isoxazole-3-carboxamide] | 138 | 29.2 |  |  |  |
| 73.8 | CN1C(=O)[C@@H](NC(=O)c2n[nH]c(Cc3ccccc3)n2)COc2ccc(C#Cc3ccc4c(c3)CNCC4)cc21 [Compound I-88, (S)-5-benzyl-N-(5-methyl-4-oxo-7-((1,2,3,4-tetrahydroisoquinolin-7-yl)ethynyl)-2,3,4,5-tetrahydrobenzo[b][1,4]oxazepin-3-yl)-1H-1,2,4-triazole-3-carboxamide] | 0.7 | 0.0976 |  |  |  |
| 52.7 | CN1C(=O)[C@@H](NC(=O)c2n[nH]c(Cc3ccccc3F)n2)COc2ccc(C#CC(C)(C)C)cc21 [Compound I-89, (S)—N-(7-(3,3-dimethylbut-1-yn-1-yl)-5-methyl-4-oxo-2,3,4,5-tetrahydrobenzo[b][1,4]oxazepin-3-yl)-5-(2-fluorobenzyl)-1H-1,2,4-triazole-3-carboxamide] | 4.5 | 0.7 |  |  |  |
| 64.1 | C=C(C)C#Cc1ccc2c(c1)NC(=O)[C@@H](NC(=O)c1n[nH]c(Cc3ccccc3)n1)CO2 [Compound I-93, (S)-5-benzyl-N-(7-(3-methylbut-3-en-1-yn-1-yl)-4-oxo-2,3,4,5-tetrahydrobenzo[b][1,4]oxazepin-3-yl)-1H-1,2,4-triazole-3-carboxamide] | 3240 | 921 |  |  |  |
| 27.1 | CN1C(=O)[C@@H](NC(=O)c2n[nH]c(Cc3ccccc3)n2)COc2ccc(C#CCN3CCCC3)cc21 [Compound I-95, (S)-5-benzyl-N-(5-methyl-4-oxo-7-(3-(pyrrolidin-1-yl)prop-1-yn-1-yl)-2,3,4,5-tetrahydrobenzo[b][1,4]oxazepin-3-yl)-1H-1,2,4-triazole-3-carboxamide] | 1.4 | 0.5 |  |  |  |
| 31.7 | CN1C(=O)[C@@H](NC(=O)c2n[nH]c(Cc3ccccc3)n2)COc2ccc(C#CCN3CCOCC3)cc21 [Compound I-96, (S)-5-benzyl-N-(5-methyl-7-(3-morpholinoprop-1-yn-1-yl)-4-oxo-2,3,4,5-tetrahydrobenzo[b][1,4]oxazepin-3-yl)-1H-1,2,4-triazole-3-carboxamide] | 3.1 | 0.8 |  |  |  |
| 39.2 | CN1C(=O)[C@@H](NC(=O)c2cc(Oc3ccc(F)cc3)ccn2)COc2ccc(C#CC(C)(C)O)cc21 [Compound I-100, (S)-4-(4-fluorophenoxy)-N-(7-(3-hydroxy-3-methylbut-1-yn-1-yl)-5-methyl-4-oxo-2,3,4,5-tetrahydrobenzo[b][1,4]oxazepin-3-yl)picolinamide] | 8.3 | 263 |  |  |  |
| 49 | CN1C(=O)[C@@H](NC(=O)c2cc(Oc3ccccc3F)ccn2)COc2ccc(C#CC(C)(C)O)cc21 [Compound I-103, (S)-4-(2-fluorophenoxy)-N-(7-(3-hydroxy-3-methylbut-1-yn-1-yl)-5-methyl-4-oxo-2,3,4,5-tetrahydrobenzo[b][1,4]oxazepin-3-yl)picolinamide] | 1.5 | 67.4 |  |  |  |
| 31.2 | CN1C(=O)[C@@H](NC(=O)c2cc(Oc3ccc(F)cc3F)ccn2)COc2ccc(C#CC(C)(C)O)cc21 [Compound I-105, (S)-4-(2,4-difluorophenoxy)-N-(7-(3-hydroxy-3-methylbut-1-yn-1-yl)-5-methyl-4-oxo-2,3,4,5-tetrahydrobenzo[b][1,4]oxazepin-3-yl)picolinamide] | 9.3 | 254 |  |  |  |
